Source: ChEMBL document CHEMBL1201862, “PubChem BioAssay data set” (2004)
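The compound was tested at five concentrations on cells cultured in 96-well plates, with a 48-hour exposure period. The concentration for 50% growth inhibition is given as GI50.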 The source made the active and inactive calls. Cut-off read from the data, not from the text of the source: active = GI50 up to about 1.1 µM and inactive = higher.

Columns and labels:
Assay in all cases: growth of human tumour cells (NCI), 48 h
MDA-MB-231 = system: MDA-MB-231
CAKI-1 = system: CAKI-1
OVCAR-5 = system: OVCAR-5
T47D = system: T47D
KM12 = system: KM12
HL-60 = system: HL-60
UACC-62 = system: UACC-62
MDA-N = system: MDA-N
786-0 = system: 786-0
SK-OV-3 = system: SK-OV-3
A498 = system: A498
OVCAR-8 = system: OVCAR-8
IGROV-1 = system: IGROV-1
SNB-19 = system: SNB-19
CCRF-CEM = system: CCRF-CEM
MCF7 = system: MCF7
SN12C = system: SN12C
SF-268 = system: SF-268
M14 = system: M14
SW-620 = system: SW-620
MDA-MB-435 = system: MDA-MB-435
NCI-H460 = system: NCI-H460
LOX IMVI = system: LOX IMVI
NCI-H23 = system: NCI-H23
HCT-15 = system: HCT-15
EKVX = system: EKVX
RXF 393 = system: RXF 393
K562 = system: K562
TK-10 = system: TK-10
HCC 2998 = system: HCC 2998
SK-MEL-28 = system: SK-MEL-28
NCI/ADR-RES = system: NCI/ADR-RES
HCT-116 = system: HCT-116
Malme-3M = system: Malme-3M
SF-295 = system: SF-295
ACHN = system: ACHN
A549 = system: A549
PC-3 = system: PC-3
SNB-75 = system: SNB-75
U-251 = system: U-251
MOLT-4 = system: MOLT-4
DU-145 = system: DU-145
OVCAR-3 = system: OVCAR-3
SK-MEL-5 = system: SK-MEL-5
SF-539 = system: SF-539
HT-29 = system: HT-29
UO-31 = system: UO-31
HOP-92 = system: HOP-92
UACC-257 = system: UACC-257
HOP-62 = system: HOP-62
BT-549 = system: BT-549
COLO 205 = system: COLO 205
SK-MEL-2 = system: SK-MEL-2
NCI-H522 = system: NCI-H522
OVCAR-4 = system: OVCAR-4
RPMI-8226 = system: RPMI-8226
NCI-H226 = system: NCI-H226
SR = system: SR

## COc1ccc(-c2nc(SCC(=O)NNC(=S)Nc3ccccc3)[nH]c2-c2ccc(OC)cc2)cc1
MDA-MB-231
  GI50: 27.2 µM (inactive)
CAKI-1
  GI50: 34.3 µM (inactive)
OVCAR-5
  GI50: 23.7 µM (inactive)
T47D
  GI50: 16.6 µM (inactive)
KM12
  GI50: 24.9 µM (inactive)
HL-60
  GI50: 4.63 µM (inactive)
UACC-62
  GI50: 16.6 µM (inactive)
MDA-N
  GI50: 20.6 µM (inactive)
786-0
  GI50: 23.7 µM (inactive)
SK-OV-3
  GI50: 27.2 µM (inactive)
A498
  GI50: 22.9 µM (inactive)
OVCAR-8
  GI50: 39.9 µM (inactive)
IGROV-1
  GI50: 33.8 µM (inactive)
SNB-19
  GI50: 21.8 µM (inactive)
CCRF-CEM
  GI50: 22.7 µM (inactive)
MCF7
  GI50: 20.5 µM (inactive)
SN12C
  GI50: 21.8 µM (inactive)
SF-268
  GI50: 25.9 µM (inactive)
M14
  GI50: 17.7 µM (inactive)
SW-620
  GI50: 26.9 µM (inactive)
MDA-MB-435
  GI50: 18.2 µM (inactive)
NCI-H460
  GI50: 14.8 µM (inactive)
LOX IMVI
  GI50: 19.6 µM (inactive)
NCI-H23
  GI50: 21.4 µM (inactive)
HCT-15
  GI50: 22.2 µM
EKVX
  GI50: 28.8 µM (inactive)
RXF 393
  GI50: 16.9 µM (inactive)
K562
  GI50: 23.1 µM (inactive)
TK-10
  GI50: 40.6 µM (inactive)
HCC 2998
  GI50: 14 µM (inactive)
SK-MEL-28
  GI50: 24.3 µM (inactive)
NCI/ADR-RES
  GI50: 74.5 µM (inactive)
HCT-116
  GI50: 25.8 µM (inactive)
Malme-3M
  GI50: 52.2 µM (inactive)
SF-295
  GI50: 19.1 µM (inactive)
ACHN
  GI50: 24.5 µM (inactive)
A549
  GI50: 31.5 µM (inactive)
PC-3
  GI50: 25.8 µM (inactive)
SNB-75
  GI50: 24.9 µM (inactive)
U-251
  GI50: 17.5 µM (inactive)
MOLT-4
  GI50: 3.46 µM (inactive)
DU-145
  GI50: 28.7 µM (inactive)
OVCAR-3
  GI50: 14.3 µM (inactive)
SK-MEL-5
  GI50: 14.9 µM (inactive)
SF-539
  GI50: 15.7 µM (inactive)
HT-29
  GI50: 35.2 µM (inactive)
UO-31
  GI50: 45.9 µM (inactive)
HOP-92
  GI50: 20.8 µM (inactive)
UACC-257
  GI50: 20.8 µM (inactive)
HOP-62
  GI50: 18.6 µM (inactive)
BT-549
  GI50: 24 µM (inactive)
COLO 205
  GI50: 15.3 µM (inactive)
SK-MEL-2
  GI50: 18.4 µM (inactive)
NCI-H522
  GI50: 22.7 µM (inactive)
OVCAR-4
  GI50: 33.5 µM (inactive)

## O=C(Nc1nnc(-c2c(Cl)c(Cl)c(Cl)c(Cl)c2-c2nc3cc(C(=O)c4ccccc4)ccc3[nH]2)o1)c1ccc(Cl)cc1
MDA-MB-231
  GI50: 48.6 µM (inactive)
CAKI-1
  GI50: 40.7 µM (inactive)
OVCAR-5
  GI50: > 100 µM (inactive)
T47D
  GI50: 30.5 µM (inactive)
KM12
  GI50: 43.5 µM (inactive)
HL-60
  GI50: 20.3 µM (inactive)
MDA-N
  GI50: 5.89 µM (inactive)
RPMI-8226
  GI50: 81.7 µM (inactive)
786-0
  GI50: 30.3 µM (inactive)
SK-OV-3
  GI50: 40.2 µM (inactive)
A498
  GI50: 18.2 µM (inactive)
OVCAR-8
  GI50: 39.2 µM (inactive)
IGROV-1
  GI50: 29.2 µM (inactive)
SNB-19
  GI50: 34 µM (inactive)
CCRF-CEM
  GI50: 6.27 µM (inactive)
MCF7
  GI50: 20.2 µM (inactive)
SN12C
  GI50: 17.9 µM (inactive)
M14
  GI50: 35.5 µM (inactive)
SW-620
  GI50: 57 µM (inactive)
MDA-MB-435
  GI50: 6.31 µM (inactive)
LOX IMVI
  GI50: 34.8 µM (inactive)
NCI-H23
  GI50: 26.8 µM (inactive)
HCT-15
  GI50: 22.5 µM
EKVX
  GI50: 25.9 µM (inactive)
RXF 393
  GI50: 26.5 µM (inactive)
K562
  GI50: 7.91 µM (inactive)
TK-10
  GI50: 51.9 µM (inactive)
SK-MEL-28
  GI50: 36.7 µM (inactive)
NCI/ADR-RES
  GI50: 26.7 µM (inactive)
HCT-116
  GI50: 36.5 µM (inactive)
SF-295
  GI50: 5.86 µM (inactive)
ACHN
  GI50: 30.7 µM (inactive)
A549
  GI50: 25.6 µM (inactive)
PC-3
  GI50: 25.1 µM (inactive)
SNB-75
  GI50: 47.8 µM (inactive)
U-251
  GI50: 32 µM (inactive)
NCI-H226
  GI50: 26.4 µM (inactive)
SR
  GI50: 4.88 µM (inactive)
MOLT-4
  GI50: 13.6 µM (inactive)
DU-145
  GI50: 58.6 µM (inactive)
OVCAR-3
  GI50: 13.8 µM (inactive)
SK-MEL-5
  GI50: 12.2 µM (inactive)
SF-539
  GI50: 22.4 µM (inactive)
HT-29
  GI50: 37.9 µM (inactive)
UO-31
  GI50: 41.7 µM (inactive)
HOP-92
  GI50: 20.5 µM (inactive)
UACC-257
  GI50: 36.8 µM (inactive)
HOP-62
  GI50: 12.8 µM (inactive)
BT-549
  GI50: 41.9 µM (inactive)
COLO 205
  GI50: 15.5 µM (inactive)
SK-MEL-2
  GI50: 29.6 µM (inactive)
OVCAR-4
  GI50: 24.7 µM (inactive)

## COC(=O)C1C(OC(=O)C(Cl)(c2ccccc2)c2ccccc2)CC2CCC1N2C (stereo not given)
MDA-MB-231
  GI50: > 100 µM (inactive)
CAKI-1
  GI50: 94.6 µM (inactive)
OVCAR-5
  GI50: > 100 µM (inactive)
T47D
  GI50: > 100 µM (inactive)
KM12
  GI50: > 100 µM (inactive)
HL-60
  GI50: > 100 µM (inactive)
UACC-62
  GI50: > 100 µM (inactive)
MDA-N
  GI50: > 100 µM (inactive)
RPMI-8226
  GI50: > 100 µM (inactive)
786-0
  GI50: > 100 µM (inactive)
SK-OV-3
  GI50: > 100 µM (inactive)
OVCAR-8
  GI50: > 100 µM (inactive)
IGROV-1
  GI50: > 100 µM (inactive)
SNB-19
  GI50: > 100 µM (inactive)
CCRF-CEM
  GI50: > 100 µM (inactive)
MCF7
  GI50: > 100 µM (inactive)
SN12C
  GI50: > 100 µM (inactive)
SF-268
  GI50: > 100 µM (inactive)
M14
  GI50: 45.1 µM (inactive)
SW-620
  GI50: > 100 µM (inactive)
MDA-MB-435
  GI50: > 100 µM (inactive)
LOX IMVI
  GI50: > 100 µM (inactive)
NCI-H23
  GI50: > 100 µM (inactive)
HCT-15
  GI50: > 100 µM
EKVX
  GI50: > 100 µM (inactive)
RXF 393
  GI50: > 100 µM (inactive)
K562
  GI50: > 100 µM (inactive)
TK-10
  GI50: > 100 µM (inactive)
HCC 2998
  GI50: > 100 µM (inactive)
SK-MEL-28
  GI50: > 100 µM (inactive)
NCI/ADR-RES
  GI50: > 100 µM (inactive)
HCT-116
  GI50: > 100 µM (inactive)
Malme-3M
  GI50: > 100 µM (inactive)
SF-295
  GI50: > 100 µM (inactive)
ACHN
  GI50: > 100 µM (inactive)
A549
  GI50: > 100 µM (inactive)
PC-3
  GI50: > 100 µM (inactive)
SNB-75
  GI50: > 100 µM (inactive)
U-251
  GI50: > 100 µM (inactive)
NCI-H226
  GI50: > 100 µM (inactive)
SR
  GI50: > 100 µM (inactive)
MOLT-4
  GI50: > 100 µM (inactive)
DU-145
  GI50: > 100 µM (inactive)
OVCAR-3
  GI50: > 100 µM (inactive)
SK-MEL-5
  GI50: > 100 µM (inactive)
SF-539
  GI50: > 100 µM (inactive)
HT-29
  GI50: > 100 µM (inactive)
UO-31
  GI50: > 100 µM (inactive)
UACC-257
  GI50: > 100 µM (inactive)
HOP-62
  GI50: > 100 µM (inactive)
BT-549
  GI50: > 100 µM (inactive)
COLO 205
  GI50: > 100 µM (inactive)
NCI-H522
  GI50: > 100 µM (inactive)
